Experimental data as given in patent US20050282755A1, “Compositions having antimicrobial activity and uses thereof” (priority 2004, published 2005).
In brackets after ≈: the same amount, converted by molar mass. Non-standard residues stand in square brackets, D forms with d. Residues, ends and D or L forms follow the SMILES beside them. *: point of attachment. Palmitoyl = CCCCCCCCCCCCCCCC(=O)*; Lauroyl = CCCCCCCCCCCC(=O)*

Columns and labels:
Type in all cases: cell-based
[1] = system: Staphylococcus aureus ATCC 29213; assay: MIC, NCCLS M7-A6 broth microdilution, cation-adjusted Mueller Hinton broth (Table 9, no superscript); conditions: ATCC 29213
Summary of the method: (§1)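 MIC determined by microdilution in cation-adjusted Mueller Hinton broth after overnight growth at 37° C, defined as the lowest peptide level lacking turbidity.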

[2] = system: Escherichia coli ATCC 25922; assay: MIC, NCCLS M7-A6 broth microdilution (Table 9, no superscript); conditions: ATCC 25922
Summary of the method: as §1

[3] = system: Pseudomonas aeruginosa ATCC 27853; assay: as above; conditions: ATCC 27853
Summary of the method: as §1

[4] = system: Salmonella dublin (Lane); assay: as above
Summary of the method: as §1

[5] = system: Staphylococcus epidermidis ATCC 12228; assay: as above; conditions: ATCC 12228
Summary of the method: as §1

[6] = system: Propionibacterium acnes ATCC 6919; assay: MIC, agar dilution method NCCLS M11-A6, Brucella agar, anaerobic (Table 9, superscript c); conditions: ATCC 6919
Summary of the method: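 MIC taken as the lowest peptide level giving no colonies on the plate. Plates were inoculated to 1.5×10^8 CFU/milliliter, then kept anaerobically at 37° C. for 48-96 hours; method follows NCCLS M11-A6.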

[7] = system: Candida albicans ATCC 18804; assay: MIC in yeasts, NCCLS M27-A2 broth microdilution, RPMI 1640 (Table 9, letter e); conditions: ATCC 18804
Summary of the method: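 Plates incubated 24 to 48 hours at 37° C, with yeast seeded at 0.5×10^3–2.5×10^3 CFU/milliliter final in RPMI 1640 (glutamine, phenol red indicator). MIC was read as the lowest peptide concentration showing no visible growth.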

In the case of CCCCCCCCCCCC(=O)NCCCC[C@@H](NC(=O)[C@@H](CCCNC(=N)N)NC(=O)[C@@H](CCSC)NC(=O)[C@@H](Cc1ccccc1)NC(=O)[C@@H](CC(N)=O)NC(=O)[C@@H](CCCNC(=N)N)NC(=O)[C@@H](C)NC(=O)[C@H](NC(=O)[C@@H](CC(=O)O)NC(=O)[C@@H](CCCNC(=N)N)NC(=O)[C@@H](Cc1c[nH]c2ccccc12)NC(=O)[C@@H](CCCNC(=N)N)NC(=O)[C@@H](CO)NC(=O)[C@H](N)CCCNC(=N)N)C(C)C)C(N)=O [Peptide 200, H2N-rsrwrdvarnfmrk(Lauryl)-NH2] (H-[dR][dS][dR][dW][dR][dD][dV][dA][dR][dN][dF][dM][dR][dK](Lauroyl)-NH2), the “MIC S. aureus” value [1] is reported as 2 mg/L (≈ 0.971 µM), the “MIC E. coli” value [2] is reported as 4 mg/L (≈ 1.94 µM) and the “MIC P. aeruginosa” value [3] is reported as 4 mg/L (≈ 1.94 µM). For the same compound, the “MIC S. dublin” value [4] was 8 mg/L (≈ 3.88 µM), the “MIC S. epidermidis” value [5] was 1 mg/L (≈ 0.486 µM) and the “MIC P. acnes” value [6] was 8c ug/mL. For the same compound, the “MIC C. albicans” value [7] was 8e ug/mL.
CCCCCCCCCCCCCCCC(=O)NCCCC[C@@H](NC(=O)[C@@H](CCCNC(=N)N)NC(=O)[C@@H](CCSC)NC(=O)[C@@H](Cc1ccccc1)NC(=O)[C@@H](CC(N)=O)NC(=O)[C@@H](CCCNC(=N)N)NC(=O)[C@@H](C)NC(=O)[C@H](NC(=O)[C@@H](CC(=O)O)NC(=O)[C@@H](CCCNC(=N)N)NC(=O)[C@@H](Cc1c[nH]c2ccccc12)NC(=O)[C@@H](CCCNC(=N)N)NC(=O)[C@@H](CO)NC(=O)[C@H](N)CCCNC(=N)N)C(C)C)C(N)=O [Peptide 201, H2N-rsrwrdvarnfmrk(Palmitoyl)-NH2] (H-[dR][dS][dR][dW][dR][dD][dV][dA][dR][dN][dF][dM][dR][dK](Palmitoyl)-NH2) was tested, and the “MIC S. aureus” value [1] was 16 mg/L (≈ 7.56 µM), the “MIC E. coli” value [2] was 32 mg/L (≈ 15.1 µM) and the “MIC P. aeruginosa” value [3] was over 64 mg/L. The “MIC S. dublin” value [4] was 16 mg/L (≈ 7.56 µM), the “MIC S. epidermidis” value [5] was 2 mg/L (≈ 0.945 µM) and the “MIC P. acnes” value [6] was 16c ug/mL. For the same compound, the “MIC C. albicans” value [7] was 2e ug/mL.
CCCCCCCCCCCCCCCC(=O)N[C@H](CCCNC(=N)N)C(=O)N[C@H](CO)C(=O)N[C@H](CCCNC(=N)N)C(=O)N[C@H](Cc1c[nH]c2ccccc12)C(=O)N[C@H](CCCNC(=N)N)C(=O)N[C@H](CC(=O)O)C(=O)N[C@@H](C(=O)N[C@H](C)C(=O)N[C@H](CCCNC(=N)N)C(=O)N[C@H](CC(N)=O)C(=O)N[C@H](Cc1ccccc1)C(=O)N[C@H](CCSC)C(=O)N[C@H](CCCNC(=N)N)C(N)=O)C(C)C [Peptide 209, Palmitoyl-rsrwrdvarnfmr-NH2] (Palmitoyl-[dR][dS][dR][dW][dR][dD][dV][dA][dR][dN][dF][dM][dR]-NH2) was tested, and the “MIC S. aureus” value [1] was 16 mg/L (≈ 8.05 µM), the “MIC E. coli” value [2] was over 64 mg/L and the “MIC P. aeruginosa” value [3] was over 64 mg/L. For the same compound, the “MIC S. dublin” value [4] was 32 mg/L (≈ 16.1 µM), the “MIC S. epidermidis” value [5] was 8 mg/L (≈ 4.03 µM) and the “MIC P. acnes” value [6] was 32c ug/mL. For the same compound, the “MIC C. albicans” value [7] was 8e ug/mL.
For CCCCCCCCCCCC(=O)N[C@H](CCCNC(=N)N)C(=O)N[C@H](CO)C(=O)N[C@H](CCCNC(=N)N)C(=O)N[C@H](Cc1c[nH]c2ccccc12)C(=O)N[C@H](CCCNC(=N)N)C(=O)N[C@H](CCC(=O)O)C(=O)N[C@@H](C(=O)N[C@H](C)C(=O)N[C@H](CCCNC(=N)N)C(=O)N[C@H](CC(N)=O)C(=O)N[C@H](Cc1ccccc1)C(=O)N[C@H](CC(C)C)C(=O)N[C@H](CCCNC(=N)N)C(N)=O)C(C)C [Peptide 221, Lauryl-rsrwrevarnflr-NH2] (Lauroyl-[dR][dS][dR][dW][dR][dE][dV][dA][dR][dN][dF][dL][dR]-NH2), the “MIC S. aureus” value [1] was 4 mg/L (≈ 2.08 µM), the “MIC E. coli” value [2] was 8 mg/L (≈ 4.15 µM) and the “MIC P. aeruginosa” value [3] was 8 mg/L (≈ 4.15 µM). The “MIC S. dublin” value [4] was 8 mg/L (≈ 4.15 µM), the “MIC S. epidermidis” value [5] was 2 mg/L (≈ 1.04 µM) and the “MIC P. acnes” value [6] was 32c ug/mL. The “MIC C. albicans” value [7] was 2e ug/mL.
